Key:
Vps34 = Vps34 (Homo sapiens, UniProt Q8NEB9); assay: Kinase Glo Luminescent Kinase Assay (Kglo), assay C; format: biochemical; conditions: read-out: Assay C VPS34 IC50
PI 4-kinase beta = PI 4-kinase beta (Homo sapiens, UniProt Q9UBF8); assay: Kinase Glo Luminescent Kinase Assay (Kglo), assay D; format: biochemical; conditions: read-out: Assay D PI4Kβ IC50
PI 3-kinase alpha [1] = molecular target: T1, PI 3-kinase alpha (Homo sapiens, UniProt P42336); assay: Cellular assay H1, p-Akt (S473) in Rat-1 cells, Surefire format; format: cell-based; conditions: non-asterisked data: version H1 (Surefire format), Rat-1 cells; read-out: Assay H PI3Kα IC50
Source text: (§1) Cellular Assays for PI 3-Kinase Alpha (H1), Beta (I1) and Delta (J1): Surefire Format
(§2) AlphaScreen (Amplified Luminescent Proximity Homogeneous Assay, ALPHA, Perkin Elmer) is a non-radioactive bead-based proximity assay technology to study biomolecular interactions in a homogenous microtiter plate format. The brand name SureFire denotes AlphaScreen assays that are adapted to quantify the phosphorylation of endogenous cellular proteins in cell lysates, by using matched antibody pairs, which consist of an anti-phospho-kinase and an anti-kinase antibody. The assay allows characterization of kinase signaling in cells as well as measurement of kinase inhibitor effects.
(§3) Using Rat-1 cells stably expressing myr-HA-tagged versions of the human PI3Kdelta, PI3Kalpha, or PI3Kbeta p110 catalytic subunit isoforms, the assay was developed as a two-plate protocol in a 384-well format.
(§4) For compound testing, the cells were seeded at a density of 4000 (Rat-1_PI3Kdelta), 7500 (Rat-1_PI3Kalpha), or 6200 (Rat-1_PI3Kbeta) cells in 20 μl complete growth medium into cell culture treated 384-well plates and were grown at 37° C./5% CO2/90% humidity for 24 h. Shortly before compound transfer, the complete medium was removed, 30 μl assay buffer (DMEM high glucose, 1×MEM NEAA, 10 mM HEPES, 2 mM L-glutamine, 0.1% (w/v) BSA) was added and 10 μl of the compound predilutions were transferred to the cells.

PI 3-kinase delta [2] = molecular target: T2, PI 3-kinase delta (Homo sapiens, UniProt O00329); assay: Cellular assay J1, p-Akt (S473) in Rat-1 cells, Surefire format; format: cell-based; conditions: non-asterisked data: version J1 (Surefire format), Rat-1 cells; read-out: Assay J PI3Kδ IC50
Target sequence in this assay (O00329 whole entry): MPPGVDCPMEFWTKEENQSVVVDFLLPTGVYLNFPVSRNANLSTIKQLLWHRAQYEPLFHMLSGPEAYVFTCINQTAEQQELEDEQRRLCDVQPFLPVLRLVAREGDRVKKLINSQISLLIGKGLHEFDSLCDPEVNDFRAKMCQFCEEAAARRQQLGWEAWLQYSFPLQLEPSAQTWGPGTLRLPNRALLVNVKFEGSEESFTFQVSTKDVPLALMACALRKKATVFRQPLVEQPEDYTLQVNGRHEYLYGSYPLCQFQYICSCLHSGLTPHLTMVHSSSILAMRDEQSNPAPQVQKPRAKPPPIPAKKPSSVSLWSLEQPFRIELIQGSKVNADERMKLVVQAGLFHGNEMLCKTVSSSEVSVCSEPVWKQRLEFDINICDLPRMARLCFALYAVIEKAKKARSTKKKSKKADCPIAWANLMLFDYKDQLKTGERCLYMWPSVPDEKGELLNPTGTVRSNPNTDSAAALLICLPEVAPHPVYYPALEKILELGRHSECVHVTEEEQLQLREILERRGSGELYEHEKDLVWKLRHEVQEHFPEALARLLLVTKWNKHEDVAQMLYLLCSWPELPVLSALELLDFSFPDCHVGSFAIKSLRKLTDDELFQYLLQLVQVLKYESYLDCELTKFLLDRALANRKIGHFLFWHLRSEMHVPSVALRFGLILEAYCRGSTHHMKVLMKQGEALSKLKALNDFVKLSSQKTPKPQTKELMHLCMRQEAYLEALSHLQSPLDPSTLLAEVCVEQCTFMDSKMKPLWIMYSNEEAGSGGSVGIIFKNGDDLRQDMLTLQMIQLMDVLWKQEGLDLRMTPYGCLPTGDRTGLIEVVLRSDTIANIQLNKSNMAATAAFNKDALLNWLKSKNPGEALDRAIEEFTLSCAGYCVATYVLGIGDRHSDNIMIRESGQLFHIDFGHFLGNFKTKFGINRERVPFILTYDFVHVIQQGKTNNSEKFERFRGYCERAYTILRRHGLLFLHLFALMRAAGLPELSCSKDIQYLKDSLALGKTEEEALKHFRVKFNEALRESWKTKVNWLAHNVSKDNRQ
Target sequence in this assay (Q63787 whole entry partner): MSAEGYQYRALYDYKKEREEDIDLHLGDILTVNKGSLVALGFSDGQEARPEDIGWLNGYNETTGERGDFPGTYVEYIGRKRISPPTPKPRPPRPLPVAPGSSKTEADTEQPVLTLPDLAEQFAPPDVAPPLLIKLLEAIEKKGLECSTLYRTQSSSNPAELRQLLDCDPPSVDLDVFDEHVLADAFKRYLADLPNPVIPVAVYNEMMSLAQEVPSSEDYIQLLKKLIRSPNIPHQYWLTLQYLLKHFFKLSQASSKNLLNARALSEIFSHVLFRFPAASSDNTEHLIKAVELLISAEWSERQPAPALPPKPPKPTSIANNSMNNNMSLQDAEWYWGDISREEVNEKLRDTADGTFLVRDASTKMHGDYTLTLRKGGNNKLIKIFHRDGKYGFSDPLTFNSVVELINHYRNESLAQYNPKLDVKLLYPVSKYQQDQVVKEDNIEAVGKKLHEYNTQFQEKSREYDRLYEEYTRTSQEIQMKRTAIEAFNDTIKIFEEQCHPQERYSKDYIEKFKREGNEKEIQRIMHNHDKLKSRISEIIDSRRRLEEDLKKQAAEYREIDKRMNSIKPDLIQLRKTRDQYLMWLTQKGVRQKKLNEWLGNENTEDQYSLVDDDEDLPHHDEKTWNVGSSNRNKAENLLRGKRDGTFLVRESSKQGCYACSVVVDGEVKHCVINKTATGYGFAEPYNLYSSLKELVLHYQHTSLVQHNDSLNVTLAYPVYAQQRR
Source text: as §1, §2, §3, §4

PI 3-kinase beta [3] = molecular target: T3, PI 3-kinase beta (Homo sapiens, UniProt P42338); assay: Kinase Glo Luminescent Kinase Assay (Kglo), assay B; format: biochemical; conditions: read-out: Assay B PI3Kβ IC50
PI 3-kinase gamma = PI 3-kinase gamma (Homo sapiens, UniProt P48736); assay: TR-FRET Adapta assay, assay E; format: biochemical; conditions: read-out: Assay E PI3Kγ IC50
Chain of PI 3-kinase gamma (P48736 whole entry): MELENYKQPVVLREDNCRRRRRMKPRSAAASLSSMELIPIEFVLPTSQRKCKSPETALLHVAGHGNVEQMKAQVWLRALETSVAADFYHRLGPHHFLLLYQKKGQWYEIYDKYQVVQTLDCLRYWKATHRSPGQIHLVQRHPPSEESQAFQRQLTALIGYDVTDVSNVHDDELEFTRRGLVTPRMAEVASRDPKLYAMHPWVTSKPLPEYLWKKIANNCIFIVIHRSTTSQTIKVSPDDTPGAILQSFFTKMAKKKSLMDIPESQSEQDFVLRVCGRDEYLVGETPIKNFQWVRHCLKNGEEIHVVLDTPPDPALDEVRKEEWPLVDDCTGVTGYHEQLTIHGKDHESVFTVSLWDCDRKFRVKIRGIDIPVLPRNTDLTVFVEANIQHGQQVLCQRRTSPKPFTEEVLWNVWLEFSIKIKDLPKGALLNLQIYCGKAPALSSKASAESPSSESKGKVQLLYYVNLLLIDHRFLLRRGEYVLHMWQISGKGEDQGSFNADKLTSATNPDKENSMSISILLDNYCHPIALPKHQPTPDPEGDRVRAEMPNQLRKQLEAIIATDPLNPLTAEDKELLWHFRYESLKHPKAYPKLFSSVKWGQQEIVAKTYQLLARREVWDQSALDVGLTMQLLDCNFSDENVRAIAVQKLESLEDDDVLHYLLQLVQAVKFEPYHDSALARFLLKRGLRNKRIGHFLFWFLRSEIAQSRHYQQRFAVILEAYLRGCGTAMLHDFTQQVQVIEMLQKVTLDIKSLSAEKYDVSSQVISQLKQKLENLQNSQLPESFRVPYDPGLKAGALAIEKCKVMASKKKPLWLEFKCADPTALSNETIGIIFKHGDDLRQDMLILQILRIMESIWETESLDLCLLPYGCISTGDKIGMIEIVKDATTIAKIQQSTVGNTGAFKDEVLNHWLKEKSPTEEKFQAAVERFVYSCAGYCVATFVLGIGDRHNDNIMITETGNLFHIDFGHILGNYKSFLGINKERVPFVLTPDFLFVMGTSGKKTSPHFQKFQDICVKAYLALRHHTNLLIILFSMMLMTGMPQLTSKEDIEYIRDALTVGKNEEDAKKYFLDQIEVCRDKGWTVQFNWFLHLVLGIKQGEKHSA

mTOR = mTOR (Homo sapiens, UniProt P42345); assay: Lanthascreen kinase binding assay, assay G; conditions: read-out: Assay G mTOR IC50
Procedure: Lanthascreen™ Kinase Binding Assay for mTOR (G)
Binding of an inhibitor to the kinase competes for binding with the tracer, resulting in a loss of FRET.
50 nL of compound dilutions were dispensed onto white 384-well small volume polystyrene plate.

PI 3-kinase beta [4] = molecular target: T3, PI 3-kinase beta; assay: Cellular assay I1, p-Akt (S473) in Rat-1 cells, Surefire format; format: cell-based; conditions: non-asterisked data: version I1 (Surefire format), Rat-1 cells; read-out: Assay I PI3Kβ IC50
PI 3-kinase delta [5] = molecular target: T2, PI 3-kinase delta; assay: TR-FRET Adapta assay, assay F
Target sequence in this assay (O00329 whole entry): as the sequence (O00329 whole entry) above
Target sequence in this assay (P27986 461-568 partner): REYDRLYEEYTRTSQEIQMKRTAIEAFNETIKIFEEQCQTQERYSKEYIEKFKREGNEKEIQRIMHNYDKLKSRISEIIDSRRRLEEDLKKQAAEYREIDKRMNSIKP

[6] = Microsomal clearance assay (M); conditions: intrinsic clearance in rat liver microsomes
Procedure: The experiments were performed in 96-well glass plates at 37° C. on an automated Tecan EVO platform. Test compounds at a concentration of 10 mM in pure DMSO were diluted 1:1000 in water to 10 μM. […] Reactions were initiated by the addition of 150 μL of a cofactor solution containing 2 mM NADPH.

PI 3-kinase alpha [7] = molecular target: T1, PI 3-kinase alpha; assay: Kinase Glo Luminescent Kinase Assay (Kglo), assay A; format: biochemical; conditions: read-out: Assay A PI3Kα IC50

Chain of PI 4-kinase beta (Q9UBF8 whole entry): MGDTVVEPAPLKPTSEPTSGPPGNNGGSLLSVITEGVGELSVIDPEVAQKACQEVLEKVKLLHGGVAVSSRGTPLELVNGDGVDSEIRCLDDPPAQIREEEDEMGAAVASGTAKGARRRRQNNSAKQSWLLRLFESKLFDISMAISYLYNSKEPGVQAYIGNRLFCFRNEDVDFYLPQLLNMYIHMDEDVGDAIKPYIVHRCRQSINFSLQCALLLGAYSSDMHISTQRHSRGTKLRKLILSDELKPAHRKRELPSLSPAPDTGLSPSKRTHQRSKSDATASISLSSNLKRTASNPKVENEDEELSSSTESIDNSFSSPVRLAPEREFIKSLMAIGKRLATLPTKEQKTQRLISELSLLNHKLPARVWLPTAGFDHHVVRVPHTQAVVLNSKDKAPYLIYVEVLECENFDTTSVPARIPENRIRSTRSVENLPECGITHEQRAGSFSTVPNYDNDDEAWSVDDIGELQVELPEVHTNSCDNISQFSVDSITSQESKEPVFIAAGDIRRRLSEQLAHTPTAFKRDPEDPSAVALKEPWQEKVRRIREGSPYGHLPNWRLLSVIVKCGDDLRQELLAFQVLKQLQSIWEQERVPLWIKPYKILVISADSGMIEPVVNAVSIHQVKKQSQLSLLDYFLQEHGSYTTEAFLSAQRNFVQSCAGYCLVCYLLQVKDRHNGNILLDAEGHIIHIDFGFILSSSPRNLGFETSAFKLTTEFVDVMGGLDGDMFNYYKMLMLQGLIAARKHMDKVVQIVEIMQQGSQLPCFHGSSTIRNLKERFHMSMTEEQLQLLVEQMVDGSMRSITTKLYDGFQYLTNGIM
Chain of Vps34 (Q8NEB9 whole entry, species assumed): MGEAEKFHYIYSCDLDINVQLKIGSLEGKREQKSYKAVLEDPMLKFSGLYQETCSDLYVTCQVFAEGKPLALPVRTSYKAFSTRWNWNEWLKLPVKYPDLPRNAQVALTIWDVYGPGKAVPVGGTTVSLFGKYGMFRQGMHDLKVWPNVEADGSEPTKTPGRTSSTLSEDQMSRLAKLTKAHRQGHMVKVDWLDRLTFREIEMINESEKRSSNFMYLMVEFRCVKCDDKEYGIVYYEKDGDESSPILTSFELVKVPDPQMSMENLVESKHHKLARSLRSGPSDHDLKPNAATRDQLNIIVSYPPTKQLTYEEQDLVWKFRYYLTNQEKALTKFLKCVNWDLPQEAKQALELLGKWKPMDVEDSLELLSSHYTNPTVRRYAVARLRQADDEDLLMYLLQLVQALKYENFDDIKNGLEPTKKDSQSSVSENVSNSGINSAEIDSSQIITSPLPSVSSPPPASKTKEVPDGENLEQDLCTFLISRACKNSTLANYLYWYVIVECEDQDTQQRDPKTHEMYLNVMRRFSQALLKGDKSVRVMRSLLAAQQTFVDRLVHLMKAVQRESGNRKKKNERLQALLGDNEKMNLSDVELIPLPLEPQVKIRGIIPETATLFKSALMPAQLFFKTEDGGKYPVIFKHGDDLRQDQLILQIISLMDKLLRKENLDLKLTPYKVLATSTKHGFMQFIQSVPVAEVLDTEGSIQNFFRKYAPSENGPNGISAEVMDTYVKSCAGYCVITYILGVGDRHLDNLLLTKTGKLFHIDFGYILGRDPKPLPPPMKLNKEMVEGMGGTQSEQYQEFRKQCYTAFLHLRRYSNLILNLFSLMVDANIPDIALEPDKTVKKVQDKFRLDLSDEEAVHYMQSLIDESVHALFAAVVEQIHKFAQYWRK

Structure (SMILES)	IC50 (Vps34)	IC50 (PI 4-kinase beta)	IC50 (PI 3-kinase delta [2])	IC50 (PI 3-kinase beta [3])	IC50 (PI 3-kinase gamma)	IC50 (mTOR)	IC50 (PI 3-kinase beta [4])	IC50 (PI 3-kinase delta [5]; read-out: Assay F PI3Kδ IC50)	Assay M RLM CI(int) [6]	IC50 (PI 3-kinase alpha [7])	IC50 (PI 3-kinase delta [5])	IC50 (PI 3-kinase alpha [1])
Cc1ccc(S(=O)(=O)NC[C@@H]2COCCN2C)cc1-c1cnc(N)c(-c2cn(C)nc2C)n1 (single isomer, unassigned) [Example 128.3a, (R)-3-(5-Amino-6-(1,3-dimethyl-1H-pyrazol-4-yl)pyrazin-2-yl)-4-methyl-N-((4-methylmorpholin-3-yl)methyl)benzenesulfonamide or (S)-3-(5-Amino-6-(1,3-dimethyl-1H-pyrazol-4-yl)pyrazin-2-yl)-4-methyl-N-((4-methylmorpholin-3-yl)methyl)benzenesulfonamide]	> 10000 nM	> 10000 nM	2100 nM	–	–	–	–	–	–	–	–	5150 nM
Cc1ccc(S(=O)(=O)NC2CC3(CC(O)C3)C2)cc1-c1cnc(N)c(-c2cn(C)nc2C)n1 (stereo not drawn) [Example 74, 3-(5-Amino-6-(1,3-dimethyl-1H-pyrazol-4-yl)pyrazin-2-yl)-N-(6-hydroxyspiro[3.3]heptan-2-yl)-4-methylbenzenesulfonamide]	> 10000 nM	–	6860 nM	830 nM	41 nM	3500 nM	> 10000 nM	380 nM	30 µL/min/mg	–	–	–
Cc1ccc(S(=O)(=O)NCC(C)(C)O)cc1-c1cnc(N)c(-c2nn(C)nc2C)n1 [Example 19, 3-[5-Amino-6-(2,5-dimethyl-2H-[1,2,3]triazol-4-yl)-pyrazin-2-yl]-N-(2-hydroxy-2-methyl-propyl)-4-methyl-benzenesulfonamide]	–	3850 nM	70 nM	140 nM	–	420 nM	280 nM	20 nM	–	–	–	–
Cc1ncc(-c2nc(-c3cc(S(=O)(=O)NCCCO)ccc3C)cnc2N)s1 [Example 10, 3-(5-Amino-6-(2-methylthiazol-5-yl)pyrazin-2-yl)-N-(3-hydroxypropyl)-4-methylbenzenesulfonamide]	210 nM	1890 nM	600 nM	890 nM	–	1880 nM	6310 nM	60 nM	–	–	–	–
Cc1cc(C)c(S(=O)(=O)NCC(C)(C)O)cc1-c1cnc(N)c(-n2cncn2)n1 [Example 121, 5-(5-Amino-6-(1H-1,2,4-triazol-1-yl)pyrazin-2-yl)-N-(2-hydroxy-2-methylpropyl)-2,4-dimethylbenzenesulfonamide]	> 10000 nM	510 nM	–	1200 nM	92 nM	5200 nM	–	960 nM	31 µL/min/mg	120 nM	–	–
Cc1cc(-c2nc(-c3cc(S(=O)(=O)NC[C@H](C)O)ccc3C)cnc2N)ccn1 [Example 129.9, (S)-3-(5-amino-6-(2-methylpyridin-4-yl)pyrazin-2-yl)-N-(2-hydroxypropyl)-4-methylbenzenesulfonamide]	> 9100 nM	> 9100 nM	–	6900 nM	45 nM	> 9100 nM	–	940 nM	20 µL/min/mg	420 nM	–	–
Cc1cc(-c2nc(-c3cc(S(=O)(=O)N[C@@H]4CCC[C@H]4N)ccc3C)cnc2N)ccn1 [Example 129.39, 3-(5-amino-6-(2-methylpyridin-4-yl)pyrazin-2-yl)-N-((1R,2R)-2-aminocyclopentyl)-4-methylbenzenesulfonamide]	> 9100 nM	> 9100 nM	–	7500 nM	110 nM	> 9100 nM	–	–	>924 µL/min/mg	730 nM	910 nM	–
Cc1ncc(-c2nc(-c3cc(S(=O)(=O)N[C@H]4CC[C@@H](O)CC4)ccc3C)cnc2N)s1 [Example 87, 3-(5-Amino-6-(2-methylthiazol-5-yl)pyrazin-2-yl)-N-((1s,4s)-4-hydroxycyclohexyl)-4-methylbenzenesulfonamide]	320 nM	1570 nM	1220 nM	270 nM	–	1840 nM	3400 nM	30 nM	–	–	–	–

Now from value to compound, other results behind:

IC50 (Vps34)	IC50 (PI 4-kinase beta)	IC50 (PI 3-kinase delta [2])	IC50 (PI 3-kinase beta [3])	IC50 (PI 3-kinase gamma)	IC50 (mTOR)	IC50 (PI 3-kinase beta [4])	IC50 (PI 3-kinase delta [5]; read-out: Assay F PI3Kδ IC50)	Assay M RLM CI(int) [6]	IC50 (PI 3-kinase alpha [7])	IC50 (PI 3-kinase delta [5])	Structure (SMILES)	IC50 (PI 3-kinase alpha [1])
420 nM	1570 nM	310 nM	620 nM	–	880 nM	1790 nM	40 nM	–	–	–	Cc1ncc(-c2nc(-c3cc(S(=O)(=O)N[C@H]4CC[C@H](O)CC4)ccc3C)cnc2N)s1 [Example 14, Trans-3-(5-Amino-6-(2-methylthiazol-5-yl)pyrazin-2-yl)-N-(4-hydroxycyclohexyl)-4-methylbenzenesulfonamide]	–
> 9400 nM	7120 nM	–	2310 nM	–	9010 nM	7280 nM	–	–	–	–	Cc1ccc(S(=O)(=O)NCC(C)(C)O)cc1-c1cnc(N)c(-n2cncn2)n1 [Example 6, 3-(5-Amino-6-(1H-1,2,4-triazol-1-yl)pyrazin-2-yl)-N-(2-hydroxy-2-methylpropyl)-4-methylbenzenesulfonamide]	–
570 nM	2640 nM	470 nM	920 nM	–	590 nM	9080 nM	70 nM	–	–	–	Cc1ncc(-c2nc(-c3cc(S(=O)(=O)NCCC(C)(C)O)ccc3C)cnc2N)s1 [Example 119.29]	–
> 9100 nM	> 9100 nM	–	5400 nM	140 nM	6000 nM	–	1200 nM	>924 µL/min/mg	690 nM	–	Cc1cc(-c2nc(-c3cc(S(=O)(=O)NCC(C)(C)N4CCOCC4)ccc3C)cnc2N)ccn1 [Example 129.29, 3-(5-amino-6-(2-methylpyridin-4-yl)pyrazin-2-yl)-4-methyl-N-(2-methyl-2-morpholinopropyl)benzenesulfonamide]	–
> 9550 nM	8900 nM	–	7800 nM	110 nM	> 9550 nM	–	1140 nM	19 µL/min/mg	1020 nM	–	Cc1ccc(S(=O)(=O)NCC(N)=O)cc1-c1cnc(N)c(-n2cncn2)n1 [Example 133, 2-(3-(5-Amino-6-(1H-1,2,4-triazol-1-yl)pyrazin-2-yl)-4-methylphenylsulfonamido)acetamide]	–
390 nM	1950 nM	–	990 nM	–	920 nM	3460 nM	–	–	–	–	Cc1ncc(-c2nc(-c3cc(S(=O)(=O)NCC(C)(C)O)ccc3C)cnc2N)s1 [Example 7, 3-(5-Amino-6-(2-methylthiazol-5-yl)pyrazin-2-yl)-N-(2-hydroxy-2-methylpropyl)-4-methylbenzenesulfonamide]	–
> 10000 nM	8600 nM	–	2800 nM	–	5550 nM	2600 nM	–	–	–	–	Cc1ccc(S(=O)(=O)NCC(C)(C)O)cc1-c1cnc(N)c(-c2cnn(C)n2)n1 [Example 18, 3-[5-Amino-6-(2-methyl-2H-[1,2,3]triazol-4-yl)-pyrazin-2-yl]-N-(2-hydroxy-2-methyl-propyl)-4-methyl-benzenesulfonamide]	–
640 nM	3740 nM	1240 nM	120 nM	–	620 nM	2670 nM	30 nM	–	–	–	Cc1ncc(-c2nc(-c3cc(S(=O)(=O)NC4CCC(F)(F)CC4)ccc3C)cnc2N)s1 [Example 55, 3-(5-Amino-6-(2-methylthiazol-5-yl)pyrazin-2-yl)-N-(4,4-difluorocyclohexyl)-4-methylbenzenesulfonamide]	–

Source: patent US10004732B2 (Novartis AG, priority 2014, dated 2018)
